Entries after “also recorded” stand apart in the source; their conditions may differ. Counter-ions that a name gives are not always drawn.
Experiments:
S180 sarcoma of mice [1] = test: Tumor inhibiting effect of LQC-Y3 on tumor bearing S180 mice
Description: (§1) The S180 mice that had been inoculated for 7 days were killed by breaking the neck thereof and ascites was taken from the mice respectively in an aseptic environment and the ascites was washed using RPMI1640 culture medium for 2 times and then made into a 2×10^7/ml cell suspension using aseptic physiological saline. Then the obtained S180 cell suspension was inoculated hypodermically at the right axillary of mice, 0.1 ml for each mouse and 50 mice total, to establish the solid tumor model.
(§2) 60 mice were divided into 2 categories, including 6 groups, according to the random number table method, i.e. normal control group of the first category, and S180 solid tumor groups of the second category which included positive (cyclophosphamide) control group, negative control group, small dosage group, middle dosage group and large dosage group, 10 mice for each group. The experiment was repeated for 3 times.
LQC-Y3 was prepared using 0.5% CMC-Na. The dosage of the small dosage group was 75 mg/Kg, the dosage of the middle dosage group was 150 mg/Kg, and the dosage of the large dosage group was 300 mg/kg. Equal volume of 0.5% CMC-Na was injected into the mice of the negative control group and cyclophosphamide injection 0.02 g/(Kg.d) was injected into the mice of the positive control group. These medicines were administrated 0.1 ml per mouse by intraperitoneal injection every the other day continuously for 15 days. During this period, the common behavior, hair, excrement and so on were observed daily. The mice that had been inoculated with S180 by hypodermic inoculation were killed by breaking the neck thereof after 24 h after the last administration and the tumor, liver and spleen were then taken.
(§3) The weight of the solid tumor group mice were measured after all the administration was finished and then the mice were killed. The spleens and the livers thereof were weighed by an electronic balance. The spleen index was calculated as the spleen weight of a mouse (mg)/the body weight of a mouse (g) and the liver index was calculated as the liver weight of a mouse (100 g)/the body weight of a mouse (g).
(§4) The solid tumor negative control group mice were weighed on the next day after the administration was finished (the eyeballs of the mice were removed to bleed and the serum was collected for subsequent experimental use). Then the mice were killed by breaking the neck thereof. The tumor tissues were taken out and weighed by an electronic balance to calculate the tumor inhibiting ratio.
(§5) All the data were statistically analyzed using SPSS11.0 software pack. The comparison of the enumeration data was carried out with X^2 test. P<0.05 had statistical significance.

S180 sarcoma of mice [2] = test: Tumor inhibiting effect of LQC-Y2 in tumor bearing S180 mice
Description: as §1, with “[…] /ml” for “2×10^7/ml”
as §2
LQC-Y2 was made into an emulsion using corn oil. The dosage of the small dosage group was 75 mg/Kg, the dosage of the middle dosage group was 150 mg/Kg, and the dosage of the large dosage group was 300 mg/kg. Equal volume of corn oil was injected into the mice of the negative control group, cyclophosphamide injection 0.02 g/(Kg.d) was injected into the mice of the positive control group. These medicines were administrated 0.1 ml per mouse by intraperitoneal injection every the other day continuously for 15 days. During this period, the common behavior, hair and excrement and so on were observed daily. The mice that had been inoculated with S180 by hypodermic inoculation were killed by breaking the necks thereof after 24 h after the last administration and the tumor, liver and spleen were then taken.
as §3, with “over” for “finished”, “mouse(g)” for “mouse (g)”, “mouse(100” for “mouse (100”, “mouse(g).” for “mouse (g).”
as §4, with “tumor-inhibiting” for “tumor inhibiting”
as §5

[3] = tested on: Human hepatoma carcinoma cells Bel7402; test: Proliferation of human hepatoma carcinoma cells Bel7402 by MTT; assay type: cell-based; settings: 40 μg/ml
[4] = tested on: Human hepatoma carcinoma cells Bel7402; test: as above; assay type: cell-based; settings: for 24 h inhibition ratio (%): Bel7402 cells; for inhibiting effect on the proliferation of Bel7402 cells: cultured in vitro, 10-40 μg/ml
Description: Human hepatoma carcinoma cells Bel7402 were recovered and subcultured using a culture flask. The preparation of the experiment was started when the cell growth entered into the exponential growth phase. The cells were then digested using pancreatic enzyme which had been filtrated at an increased pressure to prepare the cell suspension. After that the suspension was dyed for 3 min with 0.4% trypan blue. Then a blood cell counting plate was used to count the living cells which were not dyed and the dead cells which were dyed to blue. The number of the living cells identified by trypan blue was more than 98%.
Three kinds of cells which were in the exponential growth phase were inoculated at the density of 1×10^4/ml, to a 96-well plate, 200 μl for each well. Then the plate was put in a 37° C. 5% CO2 incubation box to be cultured for 24 h. The cultivation liquid was sucked away and 200 μl LQC-Y solutions of different concentrations were added thereinto (prepared with DMEM cultivation liquid containing 4% calf serum and the final concentration of which respectively were 10 μg, 20 μg, 40 μg), 4 parallel wells for each concentration. Supernatant cultivation liquid 100 μl was sucked away carefully from each well after being cultured for 24 h and 48 h, and MTS 20 μl was added into each well and homogeneously mixed. The resultant liquid was cultured in a 37° C. 5% CO2 incubation box for a further 1 h. An enzyme-labeling quantitative instrument was used to measure the absorbance at 492 nm. The experiment was repeated for 3 times and then an inhibition ratio was calculated.
The inhibition ratio of cell proliferation (%)=[(average OD value of control group-average OD value of the administration group)/average OD value of control group]×100%

ICR white mice = test: Acute toxic experiment of mice by oral administration; assay type: in vivo; design: key to Animal reaction in 14 days after the administration: Appearance / Animal reaction in 14 days after the administration: Behavior / Animal reaction in 14 days after the administration: Hair / Animal reaction in 14 days after the administration: Respiration / Animal reaction in 14 days after the administration: Posture / Animal reaction in 14 days after the administration: Reaction: ✓ means normal; settings: for Animal reaction in 14 days after the administration: Death: 10 animals; for Animal reaction in 14 days after the administration: Death / Animal reaction in 14 days after the administration: Appearance / Animal reaction in 14 days after the administration: Behavior / Animal reaction in 14 days after the administration: Hair / Animal reaction in 14 days after the administration: Posture / Animal reaction in 14 days after the administration: Reaction / Animal reaction in 14 days after the administration: Respiration: oral 3 x 2000 mg/kg (6000 mg/kg) in one day
Description: 1. Experimental Project: Acute Toxic Experiment of Mice by Oral Administration
ICR white mice (half female and half male, 18-22 g, experiment animal certificate No.: SCXK (Jing) 2006-0009);
LQC-Y3 (white powder (self prepared); and LQC-Y3 5000 mg was dissolved into 0.5% sodium carboxymethyl cellulose 100 ml and then suspended by supersonic wave. The suspension was used in situ).
The qualified animals were quarantined and weighed before the administration. Then the animals were divided into groups randomly by weight. The intragastric administration tool for mice was used to carry out the intragastric administration. The mice were fasted but not water-deprived (continuously for 14 h) overnight before being administrated. The mice were administrated at 9:00 AM for the first time (2000 mg/kg) on the present administration day and observed continuously for 1 h. The mice were administrated for the second time (2000 mg/kg) at an interval of 6 h since the first administration and observed continuously for 1 h. The mice were administrated for the third time (2000 mg/kg) at an interval of 6 h since the second administration, observed continuously for 1 h and then the mice were fed.

[5] = S180 Balb/C mice, cyclophosphamide 0.02 g/(Kg.d) i.p., 15 days
[6] = S180 mice, cyclophosphamide 0.02 g/(Kg.d) i.p., 15 days
[7] = S180 Balb/C mice, large dosage 300 mg/kg i.p. every other day, 15 days
[8] = S180 Balb/C mice, middle dosage 150 mg/Kg i.p. every other day, 15 days
[9] = S180 Balb/C mice, small dosage 75 mg/Kg i.p. every other day, 15 days

O=P1(N(CCCl)CCCl)NCCCO1 (stereo not shown) [Cyclophosphamide, reference compound]
liver index compared with the negative control group (S180 sarcoma of mice [1]; LQC-Y3 dosage groups, cyclophosphamide 0.02 g/(Kg.d)): smaller than those of the negative control group
Tumor inhibiting ratio (%) (S180 sarcoma of mice [1]; [5]): 73.40%
Tumor weight (g) (S180 sarcoma of mice [1]; [5]): 0.25 ± 0.16^(4) g
Weight growth (g) (S180 sarcoma of mice [1]; [5]): 6.90 ± 2.04^(1)(3) g
Liver index (100 g/g) (S180 sarcoma of mice [1]; [6]): 5.19 ± 0.33 100 g/g
liver index compared with the negative control group (S180 sarcoma of mice [2]; LQC-Y2 dosage groups, cyclophosphamide 0.02 g/(Kg.d)): smaller than those of the negative control group
Tumor inhibiting ratio (%) (S180 sarcoma of mice [2]; [5]): 88.55%
Tumor weight (g) (S180 sarcoma of mice [2]; [5]): 0.15 ± 0.13^(4) g
Weight growth (g) (S180 sarcoma of mice [2]; [5]): 8.98 ± 3.80^(1)(3) g
Spleen index (100 g/g) (S180 sarcoma of mice [2]; [6]): 5.29 ± 0.47^(1)(4) 100 g/g

Cc1nc(C)c(COC(=O)CCC(C)C2CCC3C4C(O)CC5CC(O)CCC5(C)C4CC(O)C23C)nc1C (stereo not shown) [LQC-Y1, (3,5,6-trimethyl pyrazine-2-yl)methyl-4-(3,7,12-trihydroxy-10,13-dimethylhexadecahydro-1H-cyclopenta[a]phenanthren-17-yl)pentanoate]
24 h inhibition ratio (%) [3]: 86.44%
24 h inhibition ratio (%) ([4]; 10 μg/ml): 67.39%
24 h inhibition ratio (%) ([4]; 20 μg/ml): 76.66%
inhibiting effect on the proliferation of Bel7402 cells [4]: evident inhibiting effect

Cc1nc(C)c(COC(=O)C23CCC(C)(C)CC2C2=CCC4C5(C)CCC(O)C(C)(C)C5CCC4(C)C2(C)CC3)nc1C (stereo not shown) [LQC-Y3, (3,5,6-trimethyl pyrazine-2-yl)methyl-10-hydroxy-2,2,6a,6b,9,9,12a-heptamethyl-1,2,3,4,4a,5,6,6a,6b,7,8,8a,9,10,11,12,12a,12b,13,14b-eicosahydropicene-4a-carboxylate]
effect on the growth of the S180 mice sarcoma (S180 sarcoma of mice [1]; 75-300 mg/kg i.p.): can Notably Inhibit the Growth; also recorded: inhibit the growth of S180 tumor effectively
Tumor inhibiting ratio (%) (S180 sarcoma of mice [1]; [7]): 50.0%
Tumor weight (g) (S180 sarcoma of mice [1]; [7]): 0.47 ± 0.23^(3) g
Tumor inhibiting ratio (%) (S180 sarcoma of mice [1]; [8]): 37.23%
Tumor weight (S180 sarcoma of mice [1]; [8]): 0.59 ± 0.28 g
Tumor inhibiting ratio (%) (S180 sarcoma of mice [1]; [9]): 33.98%
Tumor weight (S180 sarcoma of mice [1]; [9]): 0.63 ± 0.30 g
effect on the growth of the S180 sarcoma mice's weight (S180 sarcoma of mice [1]; mouse, in vivo): no effect
24 h inhibition ratio (%) [3]: 99.16%
toxic reaction (ICR white mice; mice, maximum dosage of 6000 mg/kg per day, oral, observed continuously for 14 days, 6000 mg/kg/day): No toxic reaction; also recorded: no toxic or side effect
Animal reaction in 14 days after the administration: Death (ICR white mice; ♀ ICR mice): 0
Animal reaction in 14 days after the administration: Appearance (ICR white mice; ♀ ICR mice): ✓
Animal reaction in 14 days after the administration: Behavior (ICR white mice; ♀ ICR mice): ✓
Animal reaction in 14 days after the administration: Hair (ICR white mice; ♀ ICR mice): ✓
Animal reaction in 14 days after the administration: Posture (ICR white mice; ♀ ICR mice): ✓
Animal reaction in 14 days after the administration: Reaction (ICR white mice; ♀ ICR mice): ✓
Animal reaction in 14 days after the administration: Respiration (ICR white mice; ♀ ICR mice): ✓
Animal reaction in 14 days after the administration: Death (ICR white mice; ♂ ICR mice): 0
Animal reaction in 14 days after the administration: Appearance (ICR white mice; ♂ ICR mice): ✓
Animal reaction in 14 days after the administration: Behavior (ICR white mice; ♂ ICR mice): ✓
Animal reaction in 14 days after the administration: Hair (ICR white mice; ♂ ICR mice): ✓
Animal reaction in 14 days after the administration: Posture (ICR white mice; ♂ ICR mice): ✓
Animal reaction in 14 days after the administration: Reaction (ICR white mice; ♂ ICR mice): ✓
Animal reaction in 14 days after the administration: Respiration (ICR white mice; ♂ ICR mice): ✓
24 h inhibition ratio (%) ([4]; 10 μg/ml): 34.53%
24 h inhibition ratio (%) ([4]; 20 μg/ml): 89.07%
inhibiting effect on the proliferation of Bel7402 cells [4]: evident inhibiting effect

Cc1nc(C)c(COC(=O)C2(C)CCC3(C)CCC4(C)C(=CC(=O)C5C6(C)CCC(O)C(C)(C)C6CCC54C)C3C2)nc1C (stereo not shown) [LQC-Y4, (3,5,6-trimethyl pyrazine-2-yl)methyl-10-hydroxy-2,4a,6a,6b,9,9,12a-heptamethyl-13-oxo-1,2,3,4,4a,5,6,6a,6b,7,8,8a,9,10,11,12,12a,12b,13,14b-eicosahydropicene-2-carboxylate]
24 h inhibition ratio (%) [3]: 94.42%
24 h inhibition ratio (%) ([4]; 10 μg/ml): 39.31%
24 h inhibition ratio (%) ([4]; 20 μg/ml): 44.58%
inhibiting effect on the proliferation of Bel7402 cells [4]: evident inhibiting effect

Cc1nc(C)c(COC(=O)c2cc(O)c3c(c2)C(=O)c2cccc(O)c2C3=O)nc1C [LQC-Y6, (3,5,6-trimethyl pyrazine-2-yl)methyl-4,5-dihydroxy-9,10-dioxo-9,10-dihydroanthracene-2-carboxylate]
24 h inhibition ratio (%) [3]: 81.21%
24 h inhibition ratio (%) ([4]; 10 μg/ml): 26.75%
24 h inhibition ratio (%) ([4]; 20 μg/ml): 67.23%
inhibiting effect on the proliferation of Bel7402 cells [4]: inhibiting effect

Cc1nc(C)c(COC(=O)C2=CC(O)C(O)C(O)C2)nc1C (stereo not shown) [LQC-Y10, (3,5,6-trimethyl pyrazine-2-yl)methyl 3,4,5-trihydroxycyclohexyl-1-ene formate]
24 h inhibition ratio (%) [3]: 5.69%
24 h inhibition ratio (%) ([4]; 20 μg/ml): 7.82%
inhibiting effect on the proliferation of Bel7402 cells [4]: inhibiting effect

— patent publication US9321804B2, “Synthesis and use of anti-tumor drug LQC-Y” (Beijing University of Chinese Medicine, priority 2011, dated 2016)
